± gives the expanded uncertainty stated by the source.
Experiment: xn = mol fraction of the nth substance listed
Settings: Maximal bubble pressure

CCCCn1cc[n+](C)c1.[Cl-] [1-butyl-3-methylimidazolium chloride] + O
Settings	surface tension liquid-gas [mN/m]
298.1 K, x1 = 0.011	66.2 ± 1.1
298.1 K, x1 = 0.015	65.5 ± 1.9
298.1 K, x1 = 0.018	64.7 ± 3.4
298.2 K, x1 = 0.004	69.9 ± 1
298.2 K, x1 = 0.025	64.5 ± 4
298.2 K, x1 = 0.031	63.7 ± 0.7
298.3 K, x1 = 0.007	68.8 ± 1.5
298.3 K, x1 = 0.053	61.7 ± 0.7
298.3 K, x1 = 0.073	59.9 ± 1
298.7 K, x1 = 0.142	56.7 ± 0.5
298.9 K, x1 = 0.112	57.6 ± 1.2
298.9 K, x1 = 0.226	55 ± 0.5
299 K, x1 = 0.188	55.4 ± 0.5
299.1 K, x1 = 0.004	68.9 ± 2.3
299.2 K, x1 = 0.009	66.5 ± 0.6
299.2 K, x1 = 0.016	65 ± 0.7
299.2 K, x1 = 0.023	63.8 ± 0.9
299.2 K, x1 = 0.303	55 ± 0.5
299.3 K, x1 = 0.03	62.8 ± 1.5
299.5 K, x1 = 0.033	63.3 ± 1.2
299.5 K, x1 = 0.037	63 ± 1
299.5 K, x1 = 0.374	54.9 ± 0.5
299.6 K, x1 = 0.028	64.1 ± 1.4
299.7 K, x1 = 0.002	70.5 ± 0.4
299.7 K, x1 = 0.011	67.1 ± 0.9
299.7 K, x1 = 0.017	65.6 ± 0.6
299.9 K, x1 = 0.067	59.3 ± 0.5
300 K, x1 = 0.048	61 ± 4.1
300.1 K, x1 = 0.422	54.3 ± 0.6
300.3 K, x1 = 0.077	59.6 ± 1.2
300.3 K, x1 = 0.11	57 ± 0.5
300.4 K, x1 = 0.089	57.9 ± 0.6
300.4 K, x1 = 0.292	53.7 ± 0.9
300.5 K, x1 = 0.139	55.8 ± 0.7
300.5 K, x1 = 0.198	54.9 ± 0.4
300.6 K, x1 = 0.134	55.9 ± 0.4
300.6 K, x1 = 0.48	54.1 ± 0.5
300.7 K, x1 = 0.163	55.4 ± 0.4
300.9 K, x1 = 0.36	53.8 ± 1.3
301.1 K, x1 = 0.225	54.4 ± 0.5
301.2 K, x1 = 0.268	54.8 ± 0.5
301.6 K, x1 = 0.329	54.6 ± 0.6
302.1 K, x1 = 0.398	54.4 ± 0.5

CCCCn1cc[n+](C)c1.F[B-](F)(F)F [1-butyl-3-methylimidazolium tetrafluoroborate] + O
Settings	surface tension liquid-gas [mN/m]
298 K, x1 = 0.053	47.7 ± 0.5
298 K, x1 = 0.114	48.1 ± 0.3
298.1 K, x1 = 0.014	52.4 ± 6
298.1 K, x1 = 0.046	47.8 ± 3.6
298.2 K, x1 = 0.007	60.4 ± 4.6
298.2 K, x1 = 0.021	49.2 ± 9.6
298.3 K, x1 = 0.029	47.8 ± 0.6
298.3 K, x1 = 0.033	47.9 ± 0.6
298.3 K, x1 = 0.068	48.1 ± 1.1
298.3 K, x1 = 0.186	48.1 ± 0.4
298.4 K, x1 = 0.004	60.8 ± 3.2
298.4 K, x1 = 0.019	48.9 ± 8.2
298.4 K, x1 = 0.028	48 ± 1.1
298.4 K, x1 = 0.114	48.1 ± 0.9
298.4 K, x1 = 0.17	48.1 ± 0.9
298.4 K, x1 = 0.228	47.9 ± 1
298.5 K, x1 = 0.006	56.1 ± 7.4
298.5 K, x1 = 0.009	53.2 ± 6.8
298.5 K, x1 = 0.013	50.7 ± 4
298.5 K, x1 = 0.109	48.4 ± 2.7
298.5 K, x1 = 0.163	48.2 ± 0.5
298.6 K, x1 = 0.026	48.5 ± 1.5
298.6 K, x1 = 0.061	48.4 ± 0.4
298.6 K, x1 = 0.233	47.9 ± 0.4
298.6 K, x1 = 0.292	47.6 ± 0.9
298.6 K, x1 = 0.355	47.5 ± 0.7
298.7 K, x1 = 0.014	50.7 ± 1.3
298.7 K, x1 = 0.05	48.3 ± 1.7
298.7 K, x1 = 0.42	47.4 ± 0.7
298.8 K, x1 = 0.01	53.2 ± 4.9
298.8 K, x1 = 0.319	47.7 ± 0.4
298.9 K, x1 = 0.392	47.5 ± 0.4
298.9 K, x1 = 0.435	47.2 ± 0.7
299 K, x1 = 0.004	60.3 ± 22
299.2 K, x1 = 0.51	47.3 ± 0.8

O [water] + CCCCn1cc[n+](C)c1.[Cl-]
x2 = 0
Settings	surface tension liquid-gas [mN/m]
298.1 K	71.9 ± 0.7
298.9 K	71.7 ± 0.6
299.7 K	71.6 ± 0.4

O [water] + CCCCn1cc[n+](C)c1.F[B-](F)(F)F
x2 = 0
Settings	surface tension liquid-gas [mN/m]
298.1 K	72 ± 3.6
298.5 K	71.9 ± 7.7
298.9 K	71.8 ± 8.2
